Experimental data: PubChem BioAssay (NCI)
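Dose response: 5 concentrations. Exposure: 48 h. Format: 96-well plates. Endpoint: linear interpolation; highest concentration if not reached. TGI: total growth inhibition.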

Legend:
Assay in all cases: NCI tumour cell line growth inhibition, 48 h
[1] = tested on: UACC-62 melanoma
[2] = tested on: ACHN renal
[3] = tested on: SNB-75 CNS
[4] = tested on: SK-OV-3 ovarian
[5] = tested on: SF-268 CNS
[6] = tested on: SNB-19 CNS
[7] = tested on: SK-MEL-28 melanoma
[8] = tested on: DMS 114 small cell lung
[9] = tested on: TK-10 renal
[10] = tested on: SN12C renal
[11] = tested on: OVCAR-4 ovarian
[12] = tested on: HT29 colon
[13] = tested on: U251 CNS
[14] = tested on: 786-0 renal
[15] = tested on: SK-MEL-5 melanoma
[16] = tested on: OVCAR-8 ovarian
[17] = tested on: MALME-3M melanoma
[18] = tested on: CCRF-CEM leukemia
[19] = tested on: HOP-62 NSCLC
[20] = tested on: RXF 393 renal
[21] = tested on: SR leukemia
[22] = tested on: K-562 leukemia
[23] = tested on: HCT-15 colon
[24] = tested on: UACC-257 melanoma
[25] = tested on: HL-60(TB) leukemia
[26] = tested on: HCT-116 colon
[27] = tested on: HOP-18 NSCLC
[28] = tested on: DMS 273 small cell lung
[29] = tested on: SF-295 CNS
[30] = tested on: NCI-H23 lung
[31] = tested on: NCI-H522 lung
[32] = tested on: MOLT-4 leukemia
[33] = tested on: SK-MEL-2 melanoma
[34] = tested on: SW-620 colon
[35] = tested on: KM20L2 colon
[36] = tested on: M19-MEL melanoma
[37] = tested on: M14 melanoma
[38] = tested on: NCI-H226 lung
[39] = tested on: COLO 205 colon
[40] = tested on: KM12 colon
[41] = tested on: NCI-H460 lung
[42] = tested on: A549 NSCLC
[43] = tested on: EKVX NSCLC
[44] = tested on: SNB-78 CNS
[45] = tested on: XF 498 CNS
[46] = tested on: UO-31 renal
[47] = tested on: LXFL 529 NSCLC
[48] = tested on: RPMI-8226 leukemia
[49] = tested on: LOX IMVI melanoma
[50] = tested on: OVCAR-5 ovarian
[51] = tested on: IGROV1 ovarian
[52] = tested on: CAKI-1 renal
[53] = tested on: SF-539 CNS
[54] = tested on: HCC-2998 colon
[55] = tested on: DLD-1 colon
[56] = tested on: A498 renal
[57] = tested on: OVCAR-3 ovarian
[58] = tested on: RXF-631 renal
[59] = tested on: HOP-92 NSCLC

## Cc1cccc(NC(=O)CSc2nnc(-c3ccc(N=Cc4ccc(Cl)cc4)cc3)o2)c1
[1]
  TGI: > 100 µM
[2]
  TGI: > 100 µM
[3]
  TGI: > 100 µM
[4]
  TGI: > 100 µM
[5]
  TGI: > 100 µM
[6]
  TGI: > 100 µM
[7]
  TGI: > 100 µM
[8]
  TGI: > 100 µM
[9]
  TGI: > 100 µM
[10]
  TGI: > 100 µM
[11]
  TGI: > 100 µM
[12]
  TGI: > 100 µM
[13]
  TGI: > 100 µM
[14]
  TGI: > 100 µM
[15]
  TGI: > 100 µM
[16]
  TGI: > 100 µM
[17]
  TGI: > 100 µM
[18]
  TGI: > 100 µM
[19]
  TGI: > 100 µM
[20]
  TGI: > 100 µM
[21]
  TGI: > 100 µM
[22]
  TGI: > 100 µM
[23]
  TGI: > 100 µM
[24]
  TGI: > 100 µM
[25]
  TGI: > 100 µM
[26]
  TGI: > 100 µM
[27]
  TGI: > 100 µM
[28]
  TGI: > 100 µM
[29]
  TGI: > 100 µM
[30]
  TGI: > 100 µM
[31]
  TGI: > 100 µM
[32]
  TGI: > 100 µM
[33]
  TGI: > 100 µM
[34]
  TGI: > 100 µM
[35]
  TGI: > 100 µM
[36]
  TGI: > 100 µM
[37]
  TGI: > 100 µM
[38]
  TGI: > 100 µM
[39]
  TGI: > 100 µM
[40]
  TGI: > 100 µM
[41]
  TGI: > 100 µM
[42]
  TGI: > 100 µM
[43]
  TGI: > 100 µM
[44]
  TGI: > 100 µM
[45]
  TGI: > 100 µM
[46]
  TGI: > 100 µM
[47]
  TGI: > 100 µM
[48]
  TGI: > 100 µM
[49]
  TGI: > 100 µM

## O=C(NCCOC(=O)CCCCCCCCC(=O)OCCNC(=O)NC(=O)c1cn(Cc2ccccc2)c(=O)[nH]c1=O)NC(=O)c1cn(Cc2ccccc2)c(=O)[nH]c1=O
[50]
  TGI: > 100 µM
[1]
  TGI: > 100 µM
[2]
  TGI: > 100 µM
[51]
  TGI: > 100 µM
[3]
  TGI: > 100 µM
[4]
  TGI: > 100 µM
[5]
  TGI: > 100 µM
[6]
  TGI: > 100 µM
[7]
  TGI: > 100 µM
[8]
  TGI: > 100 µM
[9]
  TGI: > 100 µM
[10]
  TGI: > 100 µM
[11]
  TGI: > 100 µM
[12]
  TGI: > 100 µM
[13]
  TGI: > 100 µM
[52]
  TGI: > 100 µM
[14]
  TGI: > 100 µM
[15]
  TGI: > 100 µM
[16]
  TGI: > 100 µM
[19]
  TGI: > 100 µM
[21]
  TGI: > 100 µM
[53]
  TGI: > 100 µM
[22]
  TGI: > 100 µM
[23]
  TGI: > 100 µM
[24]
  TGI: > 100 µM
[25]
  TGI: > 100 µM
[26]
  TGI: > 100 µM
[54]
  TGI: > 100 µM
[28]
  TGI: > 100 µM
[55]
  TGI: > 100 µM
[29]
  TGI: > 100 µM
[30]
  TGI: > 100 µM
[31]
  TGI: > 100 µM
[32]
  TGI: > 100 µM
[56]
  TGI: > 100 µM
[33]
  TGI: > 100 µM
[34]
  TGI: > 100 µM
[35]
  TGI: > 100 µM
[36]
  TGI: > 100 µM
[37]
  TGI: > 100 µM
[38]
  TGI: > 100 µM
[39]
  TGI: > 100 µM
[40]
  TGI: > 100 µM
[41]
  TGI: > 100 µM
[42]
  TGI: > 100 µM
[57]
  TGI: > 100 µM
[43]
  TGI: > 100 µM
[44]
  TGI: > 100 µM
[45]
  TGI: > 100 µM
[46]
  TGI: > 100 µM
[47]
  TGI: > 100 µM
[48]
  TGI: > 100 µM
[49]
  TGI: > 100 µM

## O=C(N[C@H]1CC2(C=C(I)C(=O)C(I)=C2)OC1=O)OCc1ccccc1
[50]
  TGI: 33.2 µM
[1]
  TGI: 30.2 µM
[2]
  TGI: 32.8 µM
[3]
  TGI: 38.2 µM
[4]
  TGI: > 100 µM
[5]
  TGI: 33.1 µM
[6]
  TGI: 47.6 µM
[7]
  TGI: 33.5 µM
[8]
  TGI: 39.3 µM
[9]
  TGI: 32.3 µM
[10]
  TGI: 32.3 µM
[11]
  TGI: 33.5 µM
[12]
  TGI: 35.8 µM
[13]
  TGI: 31.5 µM
[52]
  TGI: 36.3 µM
[14]
  TGI: 35.2 µM
[15]
  TGI: 74.6 µM
[16]
  TGI: 31.3 µM
[17]
  TGI: 31.9 µM
[18]
  TGI: 8.64 µM
[19]
  TGI: 45.6 µM
[20]
  TGI: 28.8 µM
[53]
  TGI: 32 µM
[22]
  TGI: 33.5 µM
[23]
  TGI: 44.2 µM
[24]
  TGI: 32.4 µM
[25]
  TGI: 21.4 µM
[26]
  TGI: 29.6 µM
[54]
  TGI: 34.6 µM
[55]
  TGI: 32.8 µM
[29]
  TGI: 37.3 µM
[30]
  TGI: 32.6 µM
[31]
  TGI: 26.2 µM
[58]
  TGI: 30.8 µM
[56]
  TGI: > 100 µM
[35]
  TGI: 34.7 µM
[37]
  TGI: 31.2 µM
[38]
  TGI: 90.3 µM
[39]
  TGI: 28.1 µM
[40]
  TGI: 29.5 µM
[41]
  TGI: 43 µM
[42]
  TGI: > 100 µM
[57]
  TGI: 31.3 µM
[43]
  TGI: 27.3 µM
[44]
  TGI: 33.5 µM
[45]
  TGI: 26.8 µM
[46]
  TGI: 32.1 µM
[47]
  TGI: 30.2 µM
[48]
  TGI: > 100 µM
[49]
  TGI: 30.6 µM

## Cc1ccccc1NC(=O)C(=O)CC(=O)c1sc(-n2nc(-c3ccccc3)cc2-c2ccccc2)nc1C
[50]
  TGI: > 100 µM
[1]
  TGI: > 100 µM
[2]
  TGI: > 100 µM
[51]
  TGI: > 100 µM
[3]
  TGI: > 100 µM
[4]
  TGI: > 100 µM
[5]
  TGI: > 100 µM
[6]
  TGI: > 100 µM
[8]
  TGI: > 100 µM
[9]
  TGI: > 100 µM
[10]
  TGI: > 100 µM
[11]
  TGI: > 100 µM
[12]
  TGI: > 100 µM
[13]
  TGI: > 100 µM
[52]
  TGI: > 100 µM
[14]
  TGI: > 100 µM
[16]
  TGI: > 100 µM
[17]
  TGI: > 100 µM
[18]
  TGI: > 100 µM
[19]
  TGI: > 100 µM
[20]
  TGI: > 100 µM
[21]
  TGI: > 100 µM
[53]
  TGI: > 100 µM
[22]
  TGI: > 100 µM
[23]
  TGI: > 100 µM
[24]
  TGI: > 100 µM
[25]
  TGI: > 100 µM
[26]
  TGI: > 100 µM
[54]
  TGI: > 100 µM
[28]
  TGI: > 100 µM
[55]
  TGI: > 100 µM
[29]
  TGI: > 100 µM
[30]
  TGI: > 100 µM
[31]
  TGI: > 100 µM
[32]
  TGI: > 100 µM
[58]
  TGI: > 100 µM
[56]
  TGI: > 100 µM
[33]
  TGI: > 100 µM
[34]
  TGI: > 100 µM
[35]
  TGI: > 100 µM
[36]
  TGI: > 100 µM
[37]
  TGI: > 100 µM
[38]
  TGI: > 100 µM
[39]
  TGI: > 100 µM
[40]
  TGI: > 100 µM
[41]
  TGI: > 100 µM
[42]
  TGI: > 100 µM
[57]
  TGI: > 100 µM
[43]
  TGI: > 100 µM
[44]
  TGI: > 100 µM
[59]
  TGI: > 100 µM
[46]
  TGI: > 100 µM
[47]
  TGI: > 100 µM
[48]
  TGI: > 100 µM
[49]
  TGI: > 100 µM
